# Measured values published in patent US10544186B2, “Process for the synthesis of amide bonds with the aid of novel catalysts” (Merck Patent GmbH, priority 2016, dated 2020).
# Where a name gives a salt, the structure may show the parent alone. Read-outs that look alike come from different tables or passages of the source.
# What was measured:
# [1] = Solubility of the amide linking reagents in organic solvents; assay type: physicochemical; conditions: for solubility: organic solvent or mixture, thermodynamic from solid
# Experimental: All solubility determinations are carried out in a tared gas-tight 4 ml bottle with magnetic stirrer bar. The amide linking reagent (at least 5 mg) is weighed out and a certain amount of the solvent to be investigated is added. The mixture is stirred for 2-5 minutes. If undissolved solid is still present, solvent (50-100 μl) is additionally added, and the mixture is stirred again. As soon as a clear solution is present, the experiment is terminated.
# [2] = solvent 9CH2Cl2:1CH3CN, read-out: solubility in 9CH2Cl2:1CH3CN
# [3] = solvent CH2Cl2, read-out: solubility in CH2Cl2
# [4] = solvent CH3CN, read-out: solubility in CH3CN
# [5] = solvent DMF, read-out: solubility in DMF
# [6] = solvent Hexane, read-out: solubility in Hexane
# [7] = solvent THF, read-out: solubility in THF
# [8] = solvent Toluene, read-out: solubility in Toluene
solubility in 9CH2Cl2:1CH3CN ([1]; solvent 9CH2Cl2:1CH3CN) [mg/mL],solubility in CH2Cl2 ([1]; solvent CH2Cl2) [mg/mL],solubility in CH3CN ([1]; solvent CH3CN) [mg/mL],solubility in DMF ([1]; solvent DMF) [mg/mL],solubility in Hexane ([1]; solvent Hexane) [mg/mL],solubility in THF ([1]; solvent THF) [mg/mL],solubility in Toluene ([1]; solvent Toluene) [mg/mL],solubility in the nonpolar solvents hexane and toluene compared with the BF4/PF6 analogue ([1]; hexane and toluene),Molecule,melting point,"solubility [1, 2] [mg/mL]","solubility [1, 3] [mg/mL]","solubility [1, 4] [mg/mL]","solubility [1, 5] [mg/mL]","solubility [1, 6] [mg/mL]","solubility [1, 7] [mg/mL]","solubility [1, 8] [mg/mL]"
120,6.9,>1040,>1200,<1.2,364,<1.2,,"1-(Dimethylamino(dimethylammonium-1-ylidene)methyl)-1H-benzo[d]-1,2,3-triazole 3-oxide tris(pentafluoroethyl)trifluorophosphate [BTU-FAP]",,,,,,,,
480,>780,>860,>1125,<1.2,>780,<1.2,,"O-(3,4-Dihydro-4-oxo-1,2,3-benzotriazin-3-yl)-N,N,N,N′-tetramethyluronium tris(pentafluoroethyl)trifluorophosphate [DBTU-FAP]",,,,,,,,
>2000,1000,>2000,>2000,<1.2,1000,<1.2,,"O-Pentafluorophenyl-N,N,N′,N′-tetramethyluronium tris(pentafluoroethyl)trifluorophosphate [PfTU-FAP]",,,,,,,,
>800,>1040,>700,>1100,<1.2,>1200,<1.2,,(Benzotriazol-1-yloxy)tris(dimethylamino)phosphonium tris(pentafluoroethyl)trifluorophosphate [BOP-FAP],,,,,,,,
2.9,<1.2,265,220,<1.2,<1.2,<1.2,,"CN(C)C(ON1C(=O)CCC1=O)=[N+](C)C.F[B-](F)(F)F [TSTU, O—(N-succinimidyl)-N,N,N′,N′-tetramethyluronium tetrafluoroborate, reference compound]",,,,,,,,
>1500,>1650,>1550,>1550,<1.2,>1500,5.0,,(Benzotriazol-1-yloxy)tris(pyrrolidino)phosphonium tris(pentafluoroethyl)trifluorophosphate [PyBOP-FAP],,,,,,,,
>2000,>2000,>2000,>2000,<1.2,>2000,,,(7-Azabenzotriazol-1-yloxy)tris(pyrrolidino)phosphonium tris(pentafluoroethyl)trifluorophosphate [PyAOP-FAP],,,,,,,,
>2000,690,>2000,>2000,<1.2,1400,<1.2,,"S-(1-Oxido-2-pyridyl)-N,N,N′,N′-tetramethylthiouronium tris(pentafluoroethyl)trifluorophosphate [OTT-FAP]",,,,,,,,

# More lines, now with the values behind:
Molecule,solubility in 9CH2Cl2:1CH3CN ([1]; solvent 9CH2Cl2:1CH3CN) [mg/mL],solubility in CH2Cl2 ([1]; solvent CH2Cl2) [mg/mL],solubility in CH3CN ([1]; solvent CH3CN) [mg/mL],solubility in DMF ([1]; solvent DMF) [mg/mL],solubility in Hexane ([1]; solvent Hexane) [mg/mL],solubility in THF ([1]; solvent THF) [mg/mL],solubility in Toluene ([1]; solvent Toluene) [mg/mL],solubility in the nonpolar solvents hexane and toluene compared with the BF4/PF6 analogue ([1]; hexane and toluene),melting point,"solubility [1, 2] [mg/mL]","solubility [1, 3] [mg/mL]","solubility [1, 4] [mg/mL]","solubility [1, 5] [mg/mL]","solubility [1, 6] [mg/mL]","solubility [1, 7] [mg/mL]","solubility [1, 8] [mg/mL]"
"CN(C)C(Oc1c(F)c(F)c(F)c(F)c1F)=[N+](C)C.F[P-](F)(F)(F)(F)F [PfTU, O-pentafluorophenyl-N,N,N′,N′-tetramethyluronium hexafluorophosphate, reference compound]",2.5,<1.2,1000,1000,<1.2,<1.2,<1.2,,,,,,,,,
"1-(Dimethylamino(dimethylammonium-1-yliden)methyl)-1H-azabenzo-[d][1,2,3]triazole 3-oxide tris(pentafluoroethyl)trifluorophosphate [ATU-FAP]",67,<1.2,>2000,>2000,<1.2,670,<1.2,,,,,,,,,
"[O-][n+]1nn(C(N2CCCC2)=[N+]2CCCC2)c2ccccc21 (as salt: phosphate) [BPyU-FAP, 1-(Pyrrolidino(pyrrolidinium-1-ylidene)methyl)-1H-benzo[d]-1,2,3-triazole 3-oxide tris(pentafluoroethyl)trifluorophosphate]",,,,,,,,,173 °C (dec.),,,,,,,
"CCOC(=O)/C(C#N)=N/OC(N1CCOCC1)=[N+](C)C [COMU-FAP, (1-Cyano-2-ethoxy-2-oxoethylideneaminooxy)dimethylaminomorpholinocarbenium tris(pentafluoroethyl)trifluorophosphate]",,,,,,,,solubility improvement,,> 2000,180,905,> 1500,2.1,349,4.5
"CN(C)C(On1nnc2ccccc2c1=O)=[N+](C)C.F[B-](F)(F)F [HDBTU, O-(3,4-dihydro-4-oxo-1,2,3-benzotriazin-3-yl)-N,N,N′,N′-tetramethyluronium tetrafluoroborate, reference compound]",,,,,,,,,,17,3.75,240,250,< 1.2,< 3.3,< 1.2
"F[P-](F)(F)(F)(F)F.c1cnc2c(c1)nnn2O[P+](N1CCCC1)(N1CCCC1)N1CCCC1 [PyAOP, (7-azabenzotriazol-1-yloxy)tris(pyrrolidino)phosphonium hexafluorophosphate, reference compound]",,,,,,,,,,670,1000,1000,670,< 1.2,6,< 1.2
"CN(C)C(n1n[n+]([O-])c2ccccc21)=[N+](C)C.F[P-](F)(F)(F)(F)F [HBTU, 1-(dimethylamino(dimethylamonium-1-ylidene)methyl)-1H-benzo[d][1,2,3]triazole 3-oxide hexafluorophosphate, reference compound]",<2.8,<1.1,124,200,<1.2,<3.6,<1.2,,,,,,,,,
"[O-][n+]1nn(C(N2CCCC2)=[N+]2CCCC2)c2ccccc21 [BPyU-FAP, 1-(Pyrrolidino(pyrrolidinium-1-ylidene)methyl)-1H-benzo[d]-1,2,3-triazole 3-oxide tris(pentafluoroethyl)trifluorophosphate]",,,,,,,,,,190,57,> 1020,> 1100,< 1.2,510,< 1.2
"CCOC(=O)C(C#N)=NO[C+](N(C)C)N1CCOCC1.F[P-](F)(F)(F)(F)F [COMU, (1-cyano-2-ethoxy-2-oxoethylideneaminooxy)dimethylaminomorpholinocarbenium hexafluorophosphate, reference compound]",,,,,,,,,,294,82,565,530,< 1.2,4.1,3.2
"CN(C)[P+](On1nnc2ccccc21)(N(C)C)N(C)C.F[P-](F)(F)(F)(F)F [BOP, (benzotriazol-1-yloxy)tris(dimethylamino)phosphonium hexafluorophosphate, reference compound]",,,,,,,,,,> 335,> 380,510,660,< 1.2,< 4.2,< 1.2
"F[P-](F)(F)(F)(F)F.[O-][n+]1nn(C(N2CCCC2)=[N+]2CCCC2)c2ccccc21 [HBPyU, 1-(pyrrolidino(pyrrolidinium-1-ylidene)methyl)-1H-benzo-[d][1,2,3]triazole 3-oxide hexafluorophosphate, reference compound]",,,,,,,,,,118,68.3,510,540,< 1.2,< 3.3,< 1.2
"CN(C)C(Sc1cccc[n+]1[O-])=[N+](C)C.F[P-](F)(F)(F)(F)F [HOTT, S-(1-oxido-2-pyridyl)-N,N,N′,N′-tetramethylthiouronium hexafluorophosphate, reference compound]",,,,,,,,,,180,59,810,690,< 1.2,< 1.2,< 1.2
